Tests used:
mouse calvarial explants = assay: RT-qPCR mRNA expression in calvarial explants; format: cell-based; details: calvarial explants from neo-natal and adult mice, 3 μM, 12 days ex vivo
Experimental: Calvariae from 2 to 3-day-old and from 7-week old C57BL/6 mice were dissected aseptically. The calvarial bone explants were cultured in 48-well plates in α-MEM (Biochrom) containing 10% FCS (Biochrom), 50 μg/mL ascorbic acid (Sigma-Aldrich), 5 mM β-glycerophosphate (Sigma-Aldrich), and 10 μg/mL gentamicin (Sigma-Aldrich). The day after dissection, medium was changed, and a part of the explants was treated with 3 μM L- or DL-SFN for 12 days. Thereafter, one part of the calvariae were fixed for 1 hour in 4% para-formaldehyde (PFA), and mineralization was measured by Alizarin Red S stain (Sigma-Aldrich). For this purpose, Alizarin Red S dye was extracted using 10% cetylpyridinium chloride (CPC) in 10 mM sodiumphosphate (pH=7.0) for 45 minutes at room temperature. Alizarin Red S absorbance was measured at 562 nm in a multi-plate reader (Tecan, Maennedorf, Switzerland) and normalized to total protein amount measured by bicinchoninic acid assay (Thermo Fisher Scientific, Waltham, Mass., USA). […]
Total RNA was extracted using the SV Total RNA Isolation kit (Promega) following the supplier's instructions. cDNA was synthesized from about 0.5 μg RNA using the First Strand cDNA Synthesis kit (Roche) as described by the supplier. […] All RT-qPCR assays were performed in triplicate, and expression was evaluated using the comparative quantification method (Pfaffl, Nucleic Acids Res., 29:e45 (2001)).

[1] = system: sham operated or ovariectomized (OVX) C57B16/J female mice; assay: In vivo analysis of SFN effects on bone, μCT; design: species or system mouse; details: sham-operated mice
Experimental: Analysis of SFN on mice was performed using a protocol similar to that described elsewhere (Kong et al., Arthritis Rheum., 62:159-170 (2010)). In the experimental setting herein, eight week old sham operated or ovariectomized (OVX) C57B16/J female mice were purchased from Charles River laboratories. Mice were injected with 7.5 mM DL-SFN (200 μL of SFN at a concentration of 63.8 mg/mL/kg dissolved in ethanol and further diluted in PBS) intraperitoneally every other day for five weeks. Control mice received vehicle alone.
Images from tibias fixed in 4% formaldehyde were acquired in a SkyScan 1174 with a resolution of 6 μm (X-ray voltage 50 kV). Image reconstruction was performed by applying a modified Feldkamp algorithm using the Skyscan Nrecon software. 3D and 2D morphometric parameters were calculated for the trabecular bone (350 consecutive slides, 6 μm thick) starting from 300 μm from the growth plate. Threshold values were applied for segmenting trabecular bone corresponding to bone mineral density values of 0.6/cm^3 calcium hydroxyapatite. 3D parameters were based on analysis of a Marching Cubes type model with a rendered surface. Calculation all of 2D areas and perimeters was based on the Pratt algorithm (Pratt et al., IEEE Trans. Biomed. Eng., 38, 306-309 (1991). Bone structural variables and nomenclature were used according to Bouxsein et al. (J. Bone Miner. Res., 25:1468-1486 (2010)).

female C57BL/6 mice = assay: microCT of femur after 5 weeks of daily GSK126 (in vivo Ezh2 inhibition); design: species or system mouse; details: for Ct. TV: cortical bone; for Ct. TV / Ct. Ar / Ct. BV / Ct. Mat.M.Dn / Ct. Th / Ec. Ar / Ps.Ar: femoral midshaft; for Ct. TV / Tb.N / Tb.Sp / Tb.Th / Ct. Ar / Ct. BV / Ct. Mat.M.Dn / Ct. Th / Ec. Ar / Ps.Ar: 5 weeks, mean; for Tb.N / Tb.Sp / Tb.Th: distal femur metaphysis
Experimental: Female C57BL/6 mice (Harlan Laboratories) were maintained on a 12-hour light/12-hour dark cycle and were permitted ad libitum access to food and water. For efficacy studies, 6-week old mice received daily intraperitoneal (IP) injections of GSK126 at 15 mg/kg, 50 mg/kg, or vehicle (DMSO) in 20% Captisol adjusted to pH 4-4.5 with IN acetic acid (McCabe et al., Nature, 492:108-112 (2012)) for 5 weeks.
The dosage, delivery schedule, and administration route were similar to those described elsewhere (McCabe et al., Nature, 492:108-112 (2012)). Animals were weighed daily. To label mineralizing bone surfaces, mice received subcutaneous injections of calcein (10 mg/kg) 5 days and 24 hours before euthanasia.
The quantitative analysis of the femoral metaphysis was performed using a vivaCT 40 scanner (SCANCO Medical AG) with the following parameters: E=55 kVp, 1=145 μA, integration time=300 ms. A 10.5 μm voxel size using a threshold of 220 was applied to all scans at high resolution. Using two-dimensional data from scanned slices, 3D analysis was generated and used to calculate morphometric parameters defining trabecular bone mass and micro-architecture, including Bone Volume/Tissue volume (BV/TV), trabecular number (Tb.N.), trabecular thickness (Tb.Th.), trabecular spacing (Tb.Sp.), and the structure model index (SMI), an indicator of plate-like versus rod-like trabecular architecture.

## C[S+]([O-])CCCCN=C=S (racemic) [DL-SFN]
Mouse calvarial explants
  Tnfsf11 expression: decreased
[1]; DL-SFN IP every other day for five weeks
  femoral metaphyseal cancellous bone volume per tissue volume (BV/TV): significantly higher
[1]; DL-SFN for five weeks
  trabecular number (Tb.N): significantly higher
  trabecular separation (Tb.Sp.): decreasing
  trabecular thickness (Tb.Th.): not affecting

## CC[C@H](C)n1cc(C)c2c(C(=O)NCc3c(C)cc(C)[nH]c3=O)cc(-c3ccc(N4CCNCC4)nc3)cc21 [GSK126, N-[(1,2-dihydro-4,6-dimethyl-2-oxo-3-pyridinyl)methyl]-3-methyl-1-[(1S)-1-methylpropyl]-6-[6-(1-piperazinyl)-3-pyridinyl]-1H-indole-4-carboxamide]
Female C57BL/6 mice; adult mice, 50 mg/kg daily for 5 weeks, in words
  cortical bone parameters: increased
Female C57BL/6 mice; 15 mg/kg
  Ct. TV: 1.184 mm^3
  Tb.N: 3.850 mm^−1
  Tb.Sp: 0.267 mm
  Tb.Th: 0.040 mm
  Ct. Ar: 0.719 mm^2
  Ct. BV: 0.509 mm^3
  Ct. Mat.M.Dn: 1235 mgHA/cm^3
  Ct. Th: 0.171 mm
  Ec. Ar: 0.955 mm^2
  Ps.Ar: 1.675 mm^2
Female C57BL/6 mice; 50 mg/kg
  Ct. TV: 1.243 mm^3
  Tb.N: 4.053 mm^−1
  Tb.Sp: 0.252 mm
  Tb.Th: 0.043 mm
  Ct. Ar: 0.753 mm^2
  Ct. BV: 0.532 mm^3
  Ct. Mat.M.Dn: 1238 mgHA/cm^3
  Ct. Th: 0.175 mm
  Ec. Ar: 1.006 mm^2
  Ps.Ar: 1.758 mm^2
